Active and inactive are the calls of the source. No rule for the calls is given here.

For the assay, the target named is Influenza A virus M2 proton channel (A/TW/4845/1999 H1N1). Description: NMR binding screen, influenza A virus M2 proton channel, Kd (AID 1549). Particulars: M2 protein.
For orientation: Kd means the constant that tells how readily two partners part at equilibrium. `Cn1c(NCC(=O)O)nc2c1c(=O)[nH]c(=O)n2C`: the Kd is > 4 mM (inactive).

`COc1ccc2nc(SCC(N)=O)[nH]c2c1`: the Kd is > 4 mM (inactive).

With `Cc1nnc(C)n1/N=C/c1cccs1`, the Kd was > 4 mM (inactive).

On to `O=CN1CCN(C(=O)c2ccc(F)cc2)CC1`, for which the Kd was > 4 mM (inactive).

For the compound `Cc1cc(Cl)ccc1NC(=O)C(N)=O`, the Kd was > 4 mM (inactive).

As to `CN(c1ccc(C(=O)N2CCCCC2)cc1)S(C)(=O)=O`, the Kd is > 4 mM (inactive).

As to `O=C(O)C1CCN(S(=O)(=O)c2cccs2)CC1`, the Kd was > 4 mM (inactive).

Consider `O=C(O)Cc1c[nH]c2ccccc12`, for which the Kd is > 4 mM (inactive).

As for `O=[n+]1c2c(n([O-])c3ccccc31)CCCC2`, the Kd was > 4 mM (inactive).

In the case of `NC(=O)CN1C(=O)c2cccc3cccc1c23`, the Kd is > 4 mM (inactive).

With `O=C(O)c1ccc2ccccc2n1`, the Kd was > 4 mM (inactive).

Turning to `Cc1nc2ccccc2c(=O)n1/N=C/c1ccncc1`, the Kd is > 4 mM (inactive).

Take `CC1CC2(NC(=O)NC2=O)C(C)CN1C` (configuration not stated): the Kd was > 4 mM (inactive).

Consider `CCc1cccc(C)c1NC(=O)c1cc(C)oc1C`, for which the Kd was > 4 mM (inactive).

With `Cc1ccc(SCCN2C(=O)NC(C)(C)C2=O)cc1`, the Kd was > 4 mM (inactive).

Regarding `CN1CCn2c1nc(N1CCOCC1)nc2=O`, the Kd was > 4 mM (inactive).

As to `CC(C)/C(O)=C1/C(=O)O[C@@H](c2ccoc2)[C@]2(C)C(O)[C@@H](O)[C@@]34OC5(C)OC67CC(C)(C(O)[C@]6(O)[C@@H](O)[C@]3(O5)C12)[C@H](CC(=O)O)[C@]74C` (some centres not stated), the Kd was > 4 mM (inactive).

Turning to `C#CCCCCCCCCCCCc1ccco1`, the Kd is > 4 mM (inactive).

For `COc1c(-c2ccccc2)oc2c(OC)cccc2c1=O`, the Kd is > 4 mM (inactive).

As for `Cc1cc([N+](=O)[O-])cc[n+]1[O-]`, the Kd is > 4 mM (inactive).

For `Cc1cc(C)nc(Nc2n[nH]c(Cc3ccccc3)n2)n1`, the Kd was > 4 mM (inactive).

As for `CC(C1OC(C)(C)C(O)C1O)[C@@H]1CC[C@]2(C)C3=CCC4C(C)(C)C(=O)CC[C@]4(C)C3CC[C@@]12C` (some centres not stated), the Kd was > 4 mM (inactive).

Turning to `Nc1scc[n+]1CC(=O)[O-]`, the Kd was > 4 mM (inactive).

As to `CC1(C)CC[C@]2(C(=O)O)CC[C@]3(C)C(=CCC4[C@@]5(C)CC[C@@H](O)C(C)(C)C5CC[C@]43C)C2C1` (some centres not stated), the Kd was > 4 mM (inactive).

For the compound `Nc1ncnc2c1ncn2CCOc1ccccc1`, the Kd was > 4 mM (inactive).

Regarding `CC(O)C(=O)N/N=C/c1cccs1` (configuration not stated), the Kd is > 4 mM (inactive).

Turning to `COCC(=O)Nc1ccc(F)cc1F`, the Kd is > 4 mM (inactive).

Turning to `O=C(O)CSCc1ccc(Cl)cc1`, the Kd is > 4 mM (inactive).

Turning to `NC(C(=O)O)C(O)C(=O)O` (configuration not stated), the Kd was > 4 mM (inactive).

`Cc1ccc2c(c1)=C(c1sc(N)nc1O)C(=O)N=2`: the Kd is > 4 mM (inactive).

As to `CC1(C)Oc2ccc3ccc(=O)oc3c2CC1O` (configuration not stated), the Kd is > 4 mM (inactive).

In the case of `Cc1cc(C(=O)NN2CCOCC2)c(C)o1`, the Kd was > 4 mM (inactive).

As for `Cc1cc(F)c(F)c(C(=O)NC2CC2)c1Cl`, the Kd was > 4 mM (inactive).

With `O=C(O)C1(S(=O)(=O)c2ccccc2)CC1`, the Kd was > 4 mM (inactive).

In the case of `Cc1sc2nc(C)n(NC(N)=O)c(=O)c2c1C`, the Kd was > 4 mM (inactive).

As to `N#Cc1cnn2c(C(F)(F)F)cc(C(F)(F)F)nc12`, the Kd was > 4 mM (inactive).

Consider `Cc1cccc(C(C)C)c1NC(=O)c1cccnc1`, for which the Kd is > 4 mM (inactive).

In the case of `CCNC(CC(=O)Nc1ccc(O)cc1)C(=O)O` (configuration not stated), the Kd was > 4 mM (inactive).

On to `COC1C(O)C(O[C@H]2CC[C@]3(C=O)C4C(CC[C@]3(O)C2)[C@@]2(O)CC[C@H](C3=CC(=O)OC3)[C@@]2(C)C[C@H]4OC(C)=O)OC(C)C1OC(C)=O` (some centres not stated), for which the Kd is > 4 mM (inactive).

With `COc1ccc2nc(NC(=O)c3cnccn3)sc2c1`, the Kd is > 4 mM (inactive).

As for `OCc1ccc2occc2c1`, the Kd is > 4 mM (inactive).

For the compound `COC(=O)Cc1cccc(OC)c1`, the Kd is > 4 mM (inactive).

In the case of `CCSc1n[nH]c(=O)[nH]c1=O`, the Kd is > 4 mM (inactive).

`C/C(=C\CO)CC[C@H](C)CCC[C@H](C)CCCC(C)C`: the Kd was > 4 mM (inactive).

Turning to `O=C(O)c1c[nH]c2ccccc12`, the Kd was > 4 mM (inactive).

`Nc1ccc(S(=O)(=O)Nc2ccc(F)cc2F)cc1`: the Kd was > 4 mM (inactive).

`OCc1ncoc1-c1ccccc1`: the Kd is > 4 mM (inactive).

On to `Cc1c(C(=O)NCc2ccccn2)oc2ccccc12`, for which the Kd is > 4 mM (inactive).

For the compound `O=S(=O)(Nc1ccc2c(c1)OCCO2)c1cccs1`, the Kd is > 4 mM (inactive).

Take `COc1ccc(NC2=NCC(C)S2)cc1` (configuration not stated): the Kd is > 4 mM (inactive).

Regarding `O=C(O)CN(CCCc1ccccc1)CC(=O)O`, the Kd was > 4 mM (inactive).

For `CNC(=O)c1cc2cccc(OC)c2oc1=O`, the Kd was > 4 mM (inactive).

Take `O=S(=O)(NCc1ccco1)N1CCOCC1`: the Kd was > 4 mM (inactive).

Take `Nc1nnc(SCc2ccc(F)cc2)s1`: the Kd is > 4 mM (inactive).

On to `Cc1scc(C(=O)Nn2cnnc2)c1-c1ccccc1`, for which the Kd was > 4 mM (inactive).

Regarding `c1cc2c(cc1[C@H]1OC[C@H]3[C@@H]1CO[C@H]3c1ccc3c(c1)OCO3)OCO2`, the Kd is > 4 mM (inactive).

For the compound `C=C1[C@H]2CC[C@@]3(C)[C@H](c4ccoc4)OC(=O)C[C@]13O[C@H]1C[C@H](O)C(C)(C)[C@H](CC(=O)OC)[C@]12C`, the Kd was > 4 mM (inactive).

With `Cc1cc(NC(=O)c2cccc(S(C)(=O)=O)c2)no1`, the Kd was > 4 mM (inactive).

Consider `O=C(O)C1CSC(c2cc3ccccc3nc2Cl)N1` (configuration not stated), for which the Kd is > 4 mM (inactive).

Regarding `c1ccc(-c2csc3ncn4nnnc4c23)cc1`, the Kd was > 4 mM (inactive).

`S=c1[nH]ncn1-c1ccccc1`: the Kd was > 4 mM (inactive).

`Cn1c(SCc2ccon2)nc2ccccc2c1=O`: the Kd is > 4 mM (inactive).

For the compound `CC1(C)C=Cc2cc3ccc(=O)oc3cc2O1`, the Kd is > 4 mM (inactive).

`CCCCC(Nc1n[nH]c(=O)[nH]c1=O)C(=O)O` (configuration not stated): the Kd was > 4 mM (inactive).

With `CC(NC(=O)C1CCCCC1)C(=O)NC1=NCCS1` (configuration not stated), the Kd is > 4 mM (inactive).

In the case of `COc1ccc(-c2c(OC)c3c(OC)c4c(cc3oc2=O)OC(C)(C)C=C4)cc1`, the Kd is > 4 mM (inactive).

As to `CC(=O)O[C@@H]1CC2C(C)(C)[C@H](O)C[C@H](O)[C@]2(C)C2CC[C@@]3(C)C(=CC(=O)O[C@H]3c3ccoc3)[C@@]21C` (some centres not stated), the Kd was > 4 mM (inactive).

Turning to `CCCCCCCCCCCCCCC(C(=O)O)C(O)(CC(=O)OC)C(=O)O` (configuration not stated), the Kd was > 4 mM (inactive).

For the compound `O=C(Nn1cnnc1)c1csc2ccccc12`, the Kd is > 4 mM (inactive).

Consider `CN(C)C(=O)c1ccccc1-c1ccccc1`, for which the Kd was > 4 mM (inactive).

`O=C1NCCCC1C(=O)N1CCCCC1` (configuration not stated): the Kd is > 4 mM (inactive).

Turning to `O=C(Cn1cnc2ccccc2c1=O)N1CCOCC1`, the Kd is > 4 mM (inactive).

With `Nc1nncn1C(=O)c1c(Cl)cccc1Cl`, the Kd is > 4 mM (inactive).

For the compound `CC(=O)N1CCc2cc(NC(=O)c3ccc(C)cc3)ccc21`, the Kd is > 4 mM (inactive).

On to `Cc1ccccc1-n1c(N)cc(=O)[nH]c1=S`, for which the Kd is > 4 mM (inactive).

Take `Cc1nn(-c2ccccc2)c(Cl)c1C(N)=O`: the Kd is > 4 mM (inactive).

In the case of `COc1cc2c(cc1OC)[C@@H]1C(=O)c3ccc(O)c(CC=C(C)C)c3O[C@@H]1CO2`, the Kd was > 4 mM (inactive).

Turning to `CCc1sc(C(=O)NC)cc1Br`, the Kd was > 4 mM (inactive).

For `NCC1CN(Cc2ccccc2)CCO1` (configuration not stated), the Kd was > 4 mM (inactive).

As for `CC(=O)Nc1ccc2c(c1)CCC2=O`, the Kd is > 4 mM (inactive).

For the compound `O=C(O)CCCCC1SCC2NC(=O)NC21` (configuration not stated), the Kd is > 4 mM (inactive).

Consider `Cc1cccc(NC(=O)Nc2cc(C)on2)c1`, for which the Kd is > 4 mM (inactive).

As to `Cc1ccn(S(=O)(=O)c2ccc(F)cc2)n1`, the Kd was > 4 mM (inactive).

Regarding `CNc1nnc(CSc2nc(C)cc(C)n2)s1`, the Kd was > 4 mM (inactive).

With `Cc1nc(N2CCOCC2)[nH]c(=O)c1C`, the Kd is > 4 mM (inactive).

`COc1ccc(-c2nnc(-c3ccc(N)cc3)o2)cc1`: the Kd was > 4 mM (inactive).

Take `O=C(NCc1ccccc1Br)c1ccco1`: the Kd was > 4 mM (inactive).

`C=C(C)CSc1nc2nc(C)cc(C)n2n1`: the Kd was > 4 mM (inactive).

Consider `Oc1ccc(/C=C/c2cc(O)cc(O)c2)cc1`, for which the Kd is > 4 mM (inactive).

`Cc1ccc(-c2nn(C)c(=O)c3ccccc23)cc1CO`: the Kd was > 4 mM (inactive).

Regarding `Nc1ccc2c(c1)COc1ccccc1O2`, the Kd was > 4 mM (inactive).

Consider `O=C(O)c1ccc(-n2cccc2)cc1`, for which the Kd was > 4 mM (inactive).

On to `NCc1ccc(CN2CCOCC2)cc1`, for which the Kd was > 4 mM (inactive).

Turning to `C=CCc1ccc(O)c(OC)c1`, the Kd is > 4 mM (inactive).

With `O=C1CCCc2c1nc(-c1ccccc1)n2O`, the Kd is > 4 mM (inactive).

As to `CC(=O)O[C@H]1CCC2(C)C3=C(CCC2C1(C)C)[C@]1(C)CCC(C(C)CCC=C(C)C)[C@@]1(C)CC3` (some centres not stated), the Kd was > 4 mM (inactive).

For `C=CCn1c(=S)[nH]c2ccc(Br)cc2c1=O`, the Kd is > 4 mM (inactive).

In the case of `Cc1ccc(C(=O)Nn2cnnc2)s1`, the Kd is > 4 mM (inactive).

As to `CC(=O)c1c(C)n([O-])c2ccccc2[n+]1=O`, the Kd is > 4 mM (inactive).

For `Nc1ncc2[nH]cnc2n1`, the Kd is > 4 mM (inactive).

As for `CS(=O)(=O)N1CCN(c2ncccn2)CC1`, the Kd was > 4 mM (inactive).

As for `COc1ccccc1NC(=O)CCC(=O)O`, the Kd was > 4 mM (inactive).

The values above are taken from PubChem BioAssay AID1549 (Sanford-Burnham Center for Chemical Genomics, 2009).
